Measured values reported in patent US7838542B2, “Bicyclic compositions and methods for modulating a kinase cascade” (Kinex Pharmaceuticals, LLC, priority 2006, dated 2010).

Assays:
FGFR2(h) = FGFR2(h) (Homo sapiens, UniProt P21802); experiment: Isolated kinases, percent activity relative to control (Table XV), FGFR2; assay type: biochemical; conditions: @ 10 μM
Description: (§1) Table XV illustrates percent activity of isolated kinases in the presence of the AstraZeneca ATP-competitive inhibitor (KX-328, AZ-28) or KX2-391 relative to control (untreated) isolated kinases.

isolated kinases = experiment: Isolated kinases panel, percent activity relative to control (Table XV); assay type: biochemical
Description: as §1

Lyn = Lyn (Homo sapiens, UniProt P07948); experiment: Isolated kinase assay, Lyn; assay type: biochemical
Description: as §1

[1] = tested on: c-Src/NIH-3T3 engineered cell line; experiment: Src-driven cell growth, c-Src/NIH-3T3; assay type: cell-based
CHK1(h) = CHK1(h) (Homo sapiens, UniProt O14757); experiment: Isolated kinases, percent activity relative to control (Table XV), CHK1; assay type: biochemical; conditions: @ 10 μM
Description: as §1

Shc Y239/240 = experiment: Intracellular phosphorylation: Shc Y239/240; assay type: cell-based; conditions: c-Src/NIH-3T3 and HT-29 cells
Method: (§2) HT29 (colon cancer) and c-Src527F/NIH-3T3 (Src transformed) cell lines were treated with KX2-391 or with AstraZeneca's ATP competitive Src inhibitor AZ28. AZ28 serves as a positive comparator to show what a validated Src inhibitor should do in these assays. After treatment with compound, cells were lysed, subjected to PAGE and probed with a battery of antibodies. […] In addition, off-target protein phosphorylation was also investigated. Further, induction of apoptosis was evaluated via Caspase 3 cleavage. Multiple doses of each compound were tested because the trends in response to increasing drug concentration are the most reliable indicator of activity.
(§3) The same range of multiples of the GI50 for AZ28 in these two cell lines was run as a comparison.

Abl = Abl (Homo sapiens, UniProt P00519); experiment: Isolated kinase assay, Abl; assay type: biochemical
Description: as §1

EGFRTK = EGFRTK (Homo sapiens, UniProt P00533); experiment: Isolated kinase assay, EGFRTK; assay type: biochemical
Description: as §1

FAK Tyr 925 = experiment: Intracellular phosphorylation: FAK Tyr 925; assay type: cell-based; conditions: c-Src/NIH-3T3 and HT-29 cells
Method: as §2, §3

[2] = tested on: PDGF receptor tyrosine kinase Y572/574; experiment: PDGF receptor autophosphorylation Y572/574; assay type: cell-based; conditions: c-Src/NIH-3T3 cells
Method: as §2
PDGF receptor tyrosine kinase autophosphorylates on Y572/574. This is thought not to be a direct Src substrate in cells. […] PDGF receptor tyrosine kinase Y572/574 was not detected in HT29 cells with no drug added (as well as with drug added).

Yes = Yes (Homo sapiens, UniProt P07947); experiment: Isolated kinase assay, Yes; assay type: biochemical
Description: as §1

PKCα(h) = PKCα(h) (Homo sapiens, UniProt P17252); experiment: Isolated kinases, percent activity relative to control (Table XV), PKCα; assay type: biochemical; conditions: @ 10 μM
Description: as §1

Pyk2(h) = Pyk2(h) (Homo sapiens, UniProt Q14289); experiment: Isolated kinases, percent activity relative to control (Table XV), Pyk2; assay type: biochemical; conditions: @ 10 μM
Description: as §1

[3] = tested on: NCI human colon cancer cell line HT29; experiment: Cell growth, HT29; assay type: cell-based
Src-Y416 = experiment: Intracellular phosphorylation: Src-Y416 autophosphorylation; assay type: cell-based; conditions: HT29 and c-Src527F/NIH-3T3 cells; 0.2×, 1×, 5×, 25× GI50
Method: as §2, §3

PI3 kinase = experiment: Isolated kinases, percent activity relative to control (Table XV), PI3 kinase; assay type: biochemical; conditions: @ 10 μM
Description: as §1

total phosphotyrosine = experiment: Total phosphotyrosine levels; assay type: cell-based; conditions: HT29 and c-Src527F/NIH-3T3 cells
Method: as §2

EGFR tyrosine kinase = EGFR tyrosine kinase autophosphorylation; assay type: cell-based; conditions: c-Src/NIH-3T3 and HT-29 cells
Method: as §2
This site is not a direct Src phosphorylation site.

ZAP-70(h) = ZAP-70(h) (Homo sapiens, UniProt P43403); experiment: Isolated kinases, percent activity relative to control (Table XV), ZAP-70; assay type: biochemical; conditions: @ 10 μM
Description: as §1

MAPK2(h) = MAPK2(h) (Homo sapiens, UniProt P28482); experiment: Isolated kinases, percent activity relative to control (Table XV), MAPK2; assay type: biochemical; conditions: @ 10 μM
Description: as §1

FAK Y397 = FAK Y397 autophosphorylation; assay type: cell-based; conditions: c-Src527F/NIH3T3 cells
Method: as §2
FAK Y397 is mainly a FAK autophosphorylation site and only a poor Src transphorylation site.

IGF-1R(h) = IGF-1R(h) (Homo sapiens, UniProt P08069); experiment: Isolated kinases, percent activity relative to control (Table XV), IGF-1R; assay type: biochemical; conditions: @ 10 μM
Description: as §1

Lck = Lck (Homo sapiens, UniProt P06239); experiment: Isolated kinase assay, Lck; assay type: biochemical
Description: as §1

Fyn = Fyn (Homo sapiens, UniProt P06241); experiment: Isolated kinase assay, Fyn; assay type: biochemical
Description: as §1

IR(h) = IR(h) (Homo sapiens, UniProt P06213); experiment: Isolated kinases, percent activity relative to control (Table XV), IR; assay type: biochemical; conditions: @ 10 μM
Description: as §1

[4] = tested on: PDGF receptor tyrosine kinase; experiment: Isolated kinase assay, PDGF receptor tyrosine kinase; assay type: biochemical; conditions: @ 10 μM
Description: as §1

Caspase-3 = experiment: Induction of apoptosis via Caspase 3 cleavage; assay type: cell-based; conditions: HT29 and c-Src527F/NIH-3T3 cells
Method: as §2
Cleavage of Caspase-3 is a good measure of induction of apoptosis.

Src = Src (Homo sapiens, UniProt P12931); experiment: Isolated kinase assay and titration, Src; assay type: biochemical; conditions: titration data
Description: as §1

Paxillin Y-31 = experiment: Intracellular phosphorylation: Paxillin Y-31; assay type: cell-based; conditions: c-Src/NIH-3T3 cells
Method: as §2, §3
Note: paxillin Y-31 was not detected in HT29 cells with or without added drug.

Sequence of EGFRTK (P00533 25-1210): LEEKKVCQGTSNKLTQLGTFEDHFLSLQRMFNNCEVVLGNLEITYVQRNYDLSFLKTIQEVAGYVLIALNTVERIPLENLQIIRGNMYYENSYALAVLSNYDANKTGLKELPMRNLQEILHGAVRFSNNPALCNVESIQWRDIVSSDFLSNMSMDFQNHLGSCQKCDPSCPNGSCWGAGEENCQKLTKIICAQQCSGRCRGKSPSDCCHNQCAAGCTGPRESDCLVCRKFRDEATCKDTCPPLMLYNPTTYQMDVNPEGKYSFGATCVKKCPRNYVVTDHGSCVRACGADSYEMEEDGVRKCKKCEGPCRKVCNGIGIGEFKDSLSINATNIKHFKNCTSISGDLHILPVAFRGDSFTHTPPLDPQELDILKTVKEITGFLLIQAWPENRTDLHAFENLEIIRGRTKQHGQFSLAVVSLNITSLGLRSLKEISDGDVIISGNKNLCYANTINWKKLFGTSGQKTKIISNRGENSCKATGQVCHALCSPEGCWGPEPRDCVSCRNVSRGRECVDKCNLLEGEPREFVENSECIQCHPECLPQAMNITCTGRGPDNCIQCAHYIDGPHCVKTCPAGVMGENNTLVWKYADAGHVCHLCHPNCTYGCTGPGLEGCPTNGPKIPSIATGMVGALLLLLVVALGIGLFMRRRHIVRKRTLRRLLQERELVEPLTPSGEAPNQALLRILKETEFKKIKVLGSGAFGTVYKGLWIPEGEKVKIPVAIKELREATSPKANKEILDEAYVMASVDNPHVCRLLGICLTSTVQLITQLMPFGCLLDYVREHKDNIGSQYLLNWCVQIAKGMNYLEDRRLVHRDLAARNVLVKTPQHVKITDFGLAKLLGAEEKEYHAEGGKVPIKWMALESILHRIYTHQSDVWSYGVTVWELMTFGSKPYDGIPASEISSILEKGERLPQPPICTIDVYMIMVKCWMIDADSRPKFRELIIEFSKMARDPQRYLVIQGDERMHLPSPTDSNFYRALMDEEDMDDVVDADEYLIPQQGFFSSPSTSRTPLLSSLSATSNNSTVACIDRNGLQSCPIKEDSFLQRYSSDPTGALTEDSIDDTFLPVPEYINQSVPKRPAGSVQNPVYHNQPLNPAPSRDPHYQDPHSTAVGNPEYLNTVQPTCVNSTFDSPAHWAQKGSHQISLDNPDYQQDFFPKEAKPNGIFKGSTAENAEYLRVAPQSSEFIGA
Sequence of Abl (P00519 whole entry): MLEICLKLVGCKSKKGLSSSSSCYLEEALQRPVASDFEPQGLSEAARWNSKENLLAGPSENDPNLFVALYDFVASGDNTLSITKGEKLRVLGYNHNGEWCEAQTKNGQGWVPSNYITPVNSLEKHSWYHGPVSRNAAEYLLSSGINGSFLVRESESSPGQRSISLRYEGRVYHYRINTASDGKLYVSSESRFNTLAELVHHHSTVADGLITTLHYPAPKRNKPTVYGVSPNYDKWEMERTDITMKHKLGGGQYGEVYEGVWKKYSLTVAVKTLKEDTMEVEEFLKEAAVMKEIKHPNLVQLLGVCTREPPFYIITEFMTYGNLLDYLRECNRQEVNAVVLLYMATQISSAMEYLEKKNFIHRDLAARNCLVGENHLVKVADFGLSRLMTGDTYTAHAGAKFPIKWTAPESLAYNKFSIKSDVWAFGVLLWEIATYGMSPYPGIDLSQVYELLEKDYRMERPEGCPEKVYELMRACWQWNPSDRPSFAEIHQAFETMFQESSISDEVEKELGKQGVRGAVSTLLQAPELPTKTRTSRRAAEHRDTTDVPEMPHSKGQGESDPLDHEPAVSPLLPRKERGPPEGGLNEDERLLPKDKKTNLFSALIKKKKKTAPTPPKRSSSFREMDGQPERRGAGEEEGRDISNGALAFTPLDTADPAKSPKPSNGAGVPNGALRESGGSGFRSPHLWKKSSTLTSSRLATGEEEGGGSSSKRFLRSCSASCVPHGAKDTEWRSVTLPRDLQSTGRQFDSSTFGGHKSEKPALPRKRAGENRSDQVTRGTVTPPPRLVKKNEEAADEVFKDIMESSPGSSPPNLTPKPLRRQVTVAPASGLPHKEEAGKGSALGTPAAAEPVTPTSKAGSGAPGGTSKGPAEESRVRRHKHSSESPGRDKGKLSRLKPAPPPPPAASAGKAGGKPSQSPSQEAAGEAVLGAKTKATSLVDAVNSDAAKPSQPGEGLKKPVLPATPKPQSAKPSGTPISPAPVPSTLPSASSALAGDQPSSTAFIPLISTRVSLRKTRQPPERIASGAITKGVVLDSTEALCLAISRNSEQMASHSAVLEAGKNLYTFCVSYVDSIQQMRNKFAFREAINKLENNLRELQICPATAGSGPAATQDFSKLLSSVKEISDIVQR
Sequence of Lck (P06239 whole entry): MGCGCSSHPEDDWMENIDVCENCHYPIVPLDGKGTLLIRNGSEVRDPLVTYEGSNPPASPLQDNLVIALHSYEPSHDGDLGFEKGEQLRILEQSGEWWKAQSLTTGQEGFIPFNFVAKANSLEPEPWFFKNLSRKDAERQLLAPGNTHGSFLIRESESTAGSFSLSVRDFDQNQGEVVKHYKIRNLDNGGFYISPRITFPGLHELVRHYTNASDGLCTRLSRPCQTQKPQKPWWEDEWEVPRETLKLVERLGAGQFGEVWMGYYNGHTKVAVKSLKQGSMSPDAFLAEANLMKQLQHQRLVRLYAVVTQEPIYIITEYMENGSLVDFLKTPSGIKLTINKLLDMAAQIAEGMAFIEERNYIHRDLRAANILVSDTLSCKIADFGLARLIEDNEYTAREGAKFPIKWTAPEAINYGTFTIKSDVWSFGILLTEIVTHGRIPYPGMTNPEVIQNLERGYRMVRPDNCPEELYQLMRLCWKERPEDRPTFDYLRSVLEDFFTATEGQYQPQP
Sequence of Lyn (P07948 whole entry): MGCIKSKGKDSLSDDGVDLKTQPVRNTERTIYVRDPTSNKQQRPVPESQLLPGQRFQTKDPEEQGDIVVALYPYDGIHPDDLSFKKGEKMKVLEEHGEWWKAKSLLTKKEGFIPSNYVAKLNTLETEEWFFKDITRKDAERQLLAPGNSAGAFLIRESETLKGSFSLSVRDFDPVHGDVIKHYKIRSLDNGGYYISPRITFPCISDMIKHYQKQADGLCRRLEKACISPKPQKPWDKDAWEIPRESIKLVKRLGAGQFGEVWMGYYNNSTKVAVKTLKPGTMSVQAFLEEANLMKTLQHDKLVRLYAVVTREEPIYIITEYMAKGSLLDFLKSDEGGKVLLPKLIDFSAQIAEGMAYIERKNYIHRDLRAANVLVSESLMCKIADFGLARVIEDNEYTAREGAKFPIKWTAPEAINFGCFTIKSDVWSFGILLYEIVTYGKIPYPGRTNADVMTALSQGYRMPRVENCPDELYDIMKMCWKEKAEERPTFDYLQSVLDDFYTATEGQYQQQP
Sequence of Fyn (P06241 whole entry): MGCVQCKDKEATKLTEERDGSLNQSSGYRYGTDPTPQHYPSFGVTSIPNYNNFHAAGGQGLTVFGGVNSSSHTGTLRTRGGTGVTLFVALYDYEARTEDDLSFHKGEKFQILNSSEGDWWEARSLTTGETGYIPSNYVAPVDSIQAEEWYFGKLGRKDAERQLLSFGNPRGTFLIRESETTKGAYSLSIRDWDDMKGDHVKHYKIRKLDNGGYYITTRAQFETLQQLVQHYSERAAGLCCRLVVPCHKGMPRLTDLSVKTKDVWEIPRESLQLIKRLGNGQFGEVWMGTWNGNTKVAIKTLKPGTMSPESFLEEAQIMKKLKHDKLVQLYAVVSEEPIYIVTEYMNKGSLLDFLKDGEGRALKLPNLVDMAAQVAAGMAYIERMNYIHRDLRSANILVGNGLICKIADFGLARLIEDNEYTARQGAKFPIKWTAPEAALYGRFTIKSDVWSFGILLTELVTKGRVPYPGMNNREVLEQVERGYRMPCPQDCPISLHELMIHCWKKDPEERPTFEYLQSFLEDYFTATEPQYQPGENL
Sequence of Yes (P07947 whole entry): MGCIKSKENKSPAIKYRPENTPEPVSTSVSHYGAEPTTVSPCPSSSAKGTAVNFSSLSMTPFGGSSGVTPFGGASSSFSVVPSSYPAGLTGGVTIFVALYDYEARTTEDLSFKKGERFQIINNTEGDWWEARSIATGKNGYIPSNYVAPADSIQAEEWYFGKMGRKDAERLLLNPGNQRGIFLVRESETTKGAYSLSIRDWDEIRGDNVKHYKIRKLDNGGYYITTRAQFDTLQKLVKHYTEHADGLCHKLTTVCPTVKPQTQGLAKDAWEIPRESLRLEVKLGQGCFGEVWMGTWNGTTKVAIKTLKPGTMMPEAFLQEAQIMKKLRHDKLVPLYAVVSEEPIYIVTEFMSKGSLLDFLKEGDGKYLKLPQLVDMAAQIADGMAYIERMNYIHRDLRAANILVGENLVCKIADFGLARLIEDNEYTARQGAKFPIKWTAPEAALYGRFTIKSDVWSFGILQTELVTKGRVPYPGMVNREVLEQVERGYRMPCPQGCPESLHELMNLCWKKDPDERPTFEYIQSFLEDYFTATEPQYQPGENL
Sequence of ZAP-70(h) (P43403 whole entry): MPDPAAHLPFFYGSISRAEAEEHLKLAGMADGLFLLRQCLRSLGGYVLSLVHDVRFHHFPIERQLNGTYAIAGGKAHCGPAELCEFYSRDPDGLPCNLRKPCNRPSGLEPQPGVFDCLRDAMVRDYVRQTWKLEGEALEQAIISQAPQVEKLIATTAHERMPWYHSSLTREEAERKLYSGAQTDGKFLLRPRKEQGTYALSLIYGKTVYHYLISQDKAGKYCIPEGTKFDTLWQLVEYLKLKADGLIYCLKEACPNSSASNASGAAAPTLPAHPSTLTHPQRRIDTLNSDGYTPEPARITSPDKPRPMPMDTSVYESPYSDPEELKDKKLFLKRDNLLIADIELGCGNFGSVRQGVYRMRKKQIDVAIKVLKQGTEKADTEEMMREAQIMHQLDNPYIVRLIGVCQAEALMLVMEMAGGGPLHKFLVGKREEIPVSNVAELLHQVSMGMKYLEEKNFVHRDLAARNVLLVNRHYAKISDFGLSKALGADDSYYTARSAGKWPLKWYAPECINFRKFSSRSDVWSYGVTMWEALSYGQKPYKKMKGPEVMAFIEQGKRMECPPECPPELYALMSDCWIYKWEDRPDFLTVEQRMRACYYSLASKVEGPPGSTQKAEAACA

Compound: O=C(Cc1ccc(-c2ccc(OCCN3CCOCC3)cc2)cn1)NCc1ccccc1 [KX2-391]
- percent activity of isolated kinase relative to control, FGFR2(h) (FGFR2(h)): 94%
- activity against isolated kinases (isolated kinases): weak activity against isolated kinases
- inhibition of isolated Lyn (Lyn): poor inhibition
- percent activity of isolated kinase relative to control, Lyn(h) (Lyn; @ 10 μM): 113%
- GI50 [1]: 13 nM
- percent activity of isolated kinase relative to control, CHK1(h) (CHK1(h)): 105%
- phosphorylation of Shc Y239/240 (Shc Y239/240): inhibited Src trans-phosphorylation
- inhibition of isolated Abl (Abl): poor inhibition
- percent activity of isolated kinase relative to control, Ab1(h) (Abl; @ 10 μM): 120%
- inhibition of isolated EGFRTK (EGFRTK): poor inhibition
- percent activity of isolated kinase relative to control, EGFR(h) (EGFRTK; @ 10 μM): 134%
- phosphorylation of FAK Tyr 925 (FAK Tyr 925): inhibited Src trans-phosphorylation
- PDGF receptor autophosphorylation [2]: Some effect is seen
- inhibition of isolated Yes (Yes): poor inhibition
- percent activity of isolated kinase relative to control, Yes(h) (Yes; @ 10 μM): 92%
- percent activity of isolated kinase relative to control, PKCα(h) (PKCα(h)): 111%
- percent activity of isolated kinase relative to control, Pyk2(h) (Pyk2(h)): 97%
- GI50 [3]: 23 nM
- Src-Y416 autophosphorylation (Src-Y416): expected dose response
- percent activity of isolated kinase relative to control, PI3 kinase (PI3 kinase): 100%
- total phosphotyrosine levels (total phosphotyrosine): reduction in the total phosphotyrosine levels
- EGFR tyrosine kinase autophosphorylation (EGFR tyrosine kinase): less active
- percent activity of isolated kinase relative to control, ZAP-70(h) (ZAP-70(h)): 108%
- percent activity of isolated kinase relative to control, MAPK2(h) (MAPK2(h)): 112%
- FAK autophosphorylation (Y397) (FAK Y397): no inhibition of FAK autophosphorylation
- percent activity of isolated kinase relative to control, IGF-1R(h) (IGF-1R(h)): 101%
- inhibition of isolated Lck (Lck): poor inhibition
- percent activity of isolated kinase relative to control, Lck(h) (Lck; @ 10 μM): 109%
- inhibition of isolated Fyn (Fyn): poor inhibition
- percent activity of isolated kinase relative to control, Fyn(h) (Fyn; @ 10 μM): 85%
- percent activity of isolated kinase relative to control, IR(h) (IR(h)): 112%
- percent activity of isolated kinase relative to control, PDGFRβ(h) [4]: 110%
- induction of apoptosis (Caspase-3 cleavage) (Caspase-3): very effective in inducing apoptosis
- IC50 (Src): 46000 nM
- phosphorylation of Paxillin Y-31 (Paxillin Y-31): inhibited Src trans-phosphorylation
